ChEMBL document CHEMBL4177607, “Antibacterial constituents of the plant family Amaryllidaceae” (2017)
In brackets after ≈: the same amount, converted by molar mass.

Experiments:
Format in all cases: functional
Neisseria gonorrhoeae = experiment: Antibacterial activity against Neisseria gonorrhoeae
Flavobacterium columnare [1] = experiment: Antibacterial activity against Flavobacterium columnare ALM-00-173 after 24 hrs; conditions: ALM-00-173, 24 h
Flavobacterium columnare [2] = experiment: Antibacterial activity against Flavobacterium columnare BioMed after 24 hrs
Rhodococcus fascians = experiment: Antibacterial activity against Corynebacterium fascians assessed as diameter of inhibition zone at 10 mM after 48 to 72 hrs by paper disc method; conditions: Rhodococcoides fascians; read-out: DIZ
Escherichia coli [3] = experiment: Antibacterial activity against Escherichia coli after 24 hrs by broth microdilution method
Pseudomonas aeruginosa = experiment: Antibacterial activity against Pseudomonas aeruginosa after 24 hrs by broth microdilution method
Shigella flexneri = experiment: Antibacterial activity against Shigella flexneri after 24 hrs by broth microdilution method
Edwardsiella ictaluri = experiment: Antibacterial activity against Edwardsiella ictaluri after 24 hrs
Staphylococcus aureus [4] = experiment: Antibacterial activity against Staphylococcus aureus
Escherichia coli [5] = experiment: Antibacterial activity against Escherichia coli assessed as diameter of inhibition zone at 1 mg/ml; conditions: read-out: DIZ
Staphylococcus aureus [6] = experiment: Antibacterial activity against Staphylococcus aureus assessed as diameter of inhibition zone at 1 mg/ml; conditions: read-out: DIZ
Escherichia coli [7] = experiment: Antibacterial activity against Escherichia coli incubated overnight by two-fold serial dilution method
Staphylococcus aureus [8] = experiment: Antibacterial activity against Staphylococcus aureus incubated overnight by two-fold serial dilution method
[9] = system: Agrobacterium tumefaciens; experiment: Antibacterial activity against Agrobacterium tumefaciens assessed as inhibition of crown gall tumor initiation at 1 mg/ml

| Compound | MIC (Flavobacterium columnare [1]) | MIC (Flavobacterium columnare [2]) | other results |
| --- | --- | --- | --- |
| CC1(C)O[C@@H]2[C@H]3OS(=O)(=O)O[C@H]3[C@]3(O)c4cc5c(c(O)c4C(=O)N[C@H]3[C@@H]2O1)OCO5 |  |  | MIC (Neisseria gonorrhoeae): 32 to 64 µg/mL (≈ 72.2 to 144 µM) |
| O=c1c2cc3c(cc2c2cccc4c2n1CC4)OCO3 | 10 µM | 100 µM | zone of inhibition at 10000 µM (Rhodococcus fascians): 25 mm |
| CCCCCCCC(=O)Oc1ccc([C@@H]2CC(=O)c3c(O)c(C)c(O)c(C)c3O2)cc1 |  |  | MIC (Escherichia coli [3]): 32 µg/mL (≈ 75 µM); MIC (Pseudomonas aeruginosa): 16 µg/mL (≈ 37.5 µM); MIC (Shigella flexneri): 64 µg/mL (≈ 150 µM) |
| CC(=O)Oc1c2c(cc3c1C(=O)N[C@@H]1C3=C[C@H](OC(C)=O)[C@@H](OC(C)=O)[C@H]1OC(C)=O)OCO2 |  |  | MIC (Neisseria gonorrhoeae): 32 to 64 µg/mL (≈ 67.3 to 135 µM) |
| Cc1c(O)c(C)c2c(c1O)C(=O)C[C@@H](c1ccc(O)cc1)O2 [FARREROL] |  |  | MIC (Escherichia coli [3]): 4 µg/mL (≈ 13.3 µM); MIC (Pseudomonas aeruginosa): 8 µg/mL (≈ 26.6 µM); MIC (Shigella flexneri): 2 µg/mL (≈ 6.66 µM) |
| O=C1N[C@@H]2C(=C[C@H](O)[C@@H](O)[C@H]2O)c2cc3c(cc21)OCO3 |  |  | zone of inhibition at 1000 µg/mL (Escherichia coli [5]): 12 mm; zone of inhibition at 1000 µg/mL (Staphylococcus aureus [6]): 11 mm |
| CCCCCCCCCCCC(=O)Oc1ccc([C@@H]2CC(=O)c3c(O)c(C)c(O)c(C)c3O2)cc1 |  |  | MIC (Escherichia coli [3]): 8 µg/mL (≈ 16.6 µM); MIC (Pseudomonas aeruginosa): 16 µg/mL (≈ 33.2 µM); MIC (Shigella flexneri): 8 µg/mL (≈ 16.6 µM) |
| COC1C=C[C@@]23CCN(Cc4cc5c(cc42)OCO5)[C@@H]3C1 (stereo not given in full) |  |  | MIC (Escherichia coli [7]): 1020 µg/mL (≈ 3590 µM); MIC (Staphylococcus aureus [8]): 1020 µg/mL (≈ 3590 µM) |
| Oc1cc2c3c(c1)c1cc4c(cc1c[n+]3CC2)OCO4 | 1 µM | 10 µM | zone of inhibition at 10000 µM (Rhodococcus fascians): 0 mm |
| CC(=O)O[C@H]1C=C2CCN3Cc4cc5c(cc4[C@H]([C@@H]1O)[C@@H]23)OCO5 | 16.6 µg/mL | 3.3 µg/mL |  |
| O=C1N[C@@H]2C(=C[C@H](O)[C@@H](O)[C@H]2O[C@@H]2O[C@H](CO)[C@@H](O)[C@H](O)[C@H]2O)c2cc3c(c(O)c21)OCO3 |  |  | inhibition at 1000 µg/mL [9]: 53% |
| Oc1cc2c3c(c1)-c1cc4c(cc1CN3CC2)OCO4 |  |  | zone of inhibition at 10000 µM (Rhodococcus fascians): 0 mm |
| c1cc2c3c(c1)-c1cc4c(cc1CN3CC2)OCO4 [ANHYDROLYCORINE] |  |  | zone of inhibition at 10000 µM (Rhodococcus fascians): 25 mm |
| CC[C@H](CC[C@@H](C)[C@H]1CC[C@H]2[C@@H]3CC=C4C[C@@H](O)CC[C@]4(C)[C@H]3CC[C@]12C)C(C)C [BETA-SITOSTEROL] |  |  | zone of inhibition at 1000 µg/mL (Escherichia coli [5]): 13 mm; zone of inhibition at 1000 µg/mL (Staphylococcus aureus [6]): 15 mm |
| O=C(O[C@H]1[C@@H](O)[C@@H](O)[C@@H]2NC(=O)c3c(cc4c(c3O)OCO4)[C@@]2(O)[C@@H]1O)c1ccccc1 |  |  | MIC (Neisseria gonorrhoeae): 32 to 64 µg/mL (≈ 71.8 to 144 µM) |
| Cc1ccc(C(=O)Oc2ccc([C@@H]3CC(=O)c4c(O)c(C)c(OC(=O)c5ccc(C)cc5)c(C)c4O3)cc2)cc1 |  |  | MIC (Escherichia coli [3]): 8 µg/mL (≈ 14.9 µM); MIC (Pseudomonas aeruginosa): 16 µg/mL (≈ 29.8 µM); MIC (Shigella flexneri): 8 µg/mL (≈ 14.9 µM) |

Now from value to molecule, other results behind:

| MIC (Flavobacterium columnare [1]) | MIC (Flavobacterium columnare [2]) | Compound | other results |
| --- | --- | --- | --- |
| 4.7 µg/mL | 22.9 µg/mL | Cc1ccc(C(=O)O[C@H]2C=C3CCN4Cc5cc6c(cc5[C@H]([C@@H]2O)[C@@H]34)OCO6)cc1 |  |
| 31 µg/mL | 5.6 µg/mL | O=C(O[C@H]1C=C2CCN3Cc4cc5c(cc4[C@H]([C@@H]1OC(=O)c1ccccc1Cl)[C@@H]23)OCO5)c1cccc(Cl)c1 |  |
| 4.1 µg/mL | 4.1 µg/mL | Cc1ccccc1C(=O)O[C@H]1[C@H]2c3cc4c(cc3CN3CCC(=C[C@@H]1OC(=O)c1ccccc1C)[C@H]23)OCO4 |  |
| 40.7 µg/mL | 40.7 µg/mL | CC(=O)O[C@H]1[C@H]2c3cc4c(cc3CN3CCC(=C[C@@H]1OC(C)=O)[C@H]23)OCO4.Cl |  |
| 42.6 µg/mL | 42.6 µg/mL | O=C(O[C@H]1C=C2CCN3Cc4cc5c(cc4[C@H]([C@@H]1O)[C@@H]23)OCO5)c1ccc(Cl)cc1 |  |
| > 26 µg/mL | > 26 µg/mL | O=C1C=C2CCN3Cc4cc5c(cc4[C@H]([C@@H]1O)[C@@H]23)OCO5 | MIC (Edwardsiella ictaluri): > 26 µg/mL; MIC (Staphylococcus aureus [4]): > 26 µg/mL |
| 3 µg/mL | 32 µg/mL | Cl.O[C@H]1[C@H]2c3cc4c(cc3CN3CCC(=C[C@@H]1O)[C@H]23)OCO4 | MIC (Edwardsiella ictaluri): > 32 µg/mL; MIC (Staphylococcus aureus [4]): > 32 µg/mL |
| 46.4 µg/mL | 22.9 µg/mL | Cc1ccccc1C(=O)O[C@H]1C=C2CCN3Cc4cc5c(cc4[C@H]([C@@H]1O)[C@@H]23)OCO5 |  |
| 46.4 µg/mL | 22.9 µg/mL | Cc1ccc(C(=O)O[C@H]2[C@H]3c4cc5c(cc4CN4CCC(=C[C@@H]2OC(=O)c2ccc(C)cc2)[C@H]34)OCO5)cc1 |  |
| > 70 µg/mL | > 70 µg/mL | C[N+]12CCC3=C[C@H](OC(=O)c4ccccc4Cl)[C@@H](OC(=O)c4ccccc4Cl)[C@@H](c4cc5c(cc4C1)OCO5)[C@@H]32.[I-] (stereo not given in full) |  |
| 5.5 µg/mL | 30.4 µg/mL | Cc1ccc(C(=O)O[C@H]2[C@H]3c4cc5c(cc4CN4CCC(=C[C@@H]2OC(=O)c2ccc(C)cc2C)[C@H]34)OCO5)c(C)c1 |  |
| 31 µg/mL | 5.6 µg/mL | O=C(O[C@H]1[C@H]2c3cc4c(cc3CN3CCC(=C[C@@H]1OC(=O)c1ccc(Cl)cc1)[C@H]23)OCO4)c1ccc(Cl)cc1 |  |
